Test system: post-synaptic Dopamine (D.A.) receptors
Experiment: Inhibition of apomorphine induced climbing in the mouse
Type: in vivo
Settings: dose for 50% inhibition of climbing induced by apomorphine 1 mg/kg s.c., male CD1 mice
Method: The results in the following table are an illustration of the anti-psychotic activity of the present compounds as shown by Inhibition of Apormorphine Induced Climbing in the Mouse, a standard test.
The test is based on that described by Protais, P., Constantin, J. and Schwartz J.C. (1976), Psychopharmacology, 50, 1-6.
When mice are given a dose of 1 mg/kg apomorphine and then placed in an enclosed environment, such as an inverted wire cage, they are seen to climb around the walls. This behavioural phenomenon is thought to be a consequence of the stimulation of post-synaptic Dopamine (D.A.) receptors in the nucleus accumbens. Inhibition of apomorphine induced climbing is therefore indicative of post-synaptic D.A. receptor blockade in the accumbens.
Groups of lO male CD1 mice, weighing 25-30 g were pre-treated orally with either graded doses of the test compound or vehicle, at appropriate time intervals before the subcutaneous administration of a sub-maximal dose of apomorphine (1 mg/kg). Immediately after the apomorphine injection the mice were placed in wire 'climbing cages' and each animal was scored for climbing behavour at 10 and 20 minutes post apomorphine as follows:-
The total score was calculated for each group of mice and expressed as a percentage inhibition of climbing. [formula]
ED50's and fiducial limits were calculated according to the method of Litchfield and Wilcoxon, the ED50 being the dose that produced a 50% inhibition of apomorphine - induced climbing.

| Compound | ED50 (s.c., 4 hrs post dosing) [s.c. 4 hrs mg/kg] | ED50 (p.o., ½ hr post dosing, 30 min) [p.o. ½ hr mg/kg] |
| --- | --- | --- |
| 4-Amino-5-chloro-2-methoxy-N-[6'-exo-hydroxy-8'-benzyl-8'-azabicyclol[3.2.1]-oct-3'-β-yl]-benzamide [Example 4] | 0.47 |  |
| COc1cc(N)c(Cl)cc1C(=O)NC1CC2CC(C)C(C1)N2Cc1ccc(C)cc1 (stereo not drawn) [Example 1, 4-Amiho-5-chloro-2-rnethoxyy-N-[6'-exo-methyl-8'-(4-methylbenzyl)-8'-azabicycloro[3.2.1]-oct-3-β-yl]-benzamide] |  | 0.19 |
| 4-Amino-5 -Chloro-2-Methoxy-N-[7'-Methyl-9'-(4-Methylbenzyl)-9'-aza-bicyclo[3.3.1]-non-3-P-yl]benzamide [Example 5] |  | 0.6 |
| 2-[7'-exo-Methyl-9'-(4-methyl benzyl)-9'-aza-bicyclo[3.3.1] -non-3-β-yl]-phthalimidine [Example 9] |  | 2.65 |
| 2,3-Dimethoxy-N-[7'-exo-Methyl-9'-(4-methylbenzyl)-9'-aza- bicycclo-[3.3.1]-non-3-β-yl]benzamide [Example 8] |  | 0.48 |
| 4-Amino-5-Chloro-2-Methoxy-N-[6'-endomethyl-9'-(4 methyl- benzyiyl)-9'-aza-bicyclo[3.3,1]-non-3-β- 1]benzamide [Example 6] |  | 1.1 |
| 4-Amino-5-Chloro-2-Methoxy-N-[6'-exo-methl-9'-(4-methylbenzyl)-9'-aza-bicyclo[3.3.1]-non-3-β-yl]benzamide [Example 7] |  | 2.75 |

Reference: patent EP0095262A1, “Azabicycloalkane derivatives, their preparation and medicaments containing them” (BEECHAM GROUP PLC, priority 1982, dated 1983)
